Laboratory results taken from patent US9045482B2, “Pyrido[4,3-B]indoles and methods of use” (Medivation Technologies, Inc., priority 2009, dated 2015).

Legend:
[1] = biological target: T1, human recombinant serotonin (5-Hydroxytryptamine) 5-HT6 receptor (Homo sapiens, UniProt P50406); assay: Serotonin 5-HT6 radioligand binding ([3H]LSD)
T1 construct: expressed in transfected cells; host or cells: human HeLa cells
Procedure: (§1) Compounds of the invention were incubated with 1.5 nM [3H]Lysergic acid diethylamide (LSD) for 120 min at 37° C. […] Receptor proteins were filtered and washed, the filters were then counted to determine [3H]LSD specifically bound. Compounds were screened at 1 μM or lower, using 1% DMSO as vehicle. Biochemical assay results are presented as the percent inhibition of specific binding in Table 4.

[2] = biological target: T2, human recombinant serotonin (5-Hydroxytryptamine) 5-HT5A receptor (Homo sapiens, UniProt P47898); assay: Serotonin 5-HT5A radioligand binding ([3H]LSD); conditions: 0.1 μM ligand concentration
T2 construct: expressed in transfected cells; host or cells: Chinese hamster ovary (CHO-K1) cells
Procedure: as §1, with “1.7” for “1.5”, “[^3H]Lysergic” for “[3H]Lysergic”, “60” for “120”, “[^3H]LSD” for “[3H]LSD”

[3] = biological target: T3, human recombinant serotonin (5-Hydroxytryptamine) 5-HT2A receptor (Homo sapiens, UniProt P28223); assay: Serotonin 5-HT2A radioligand binding ([3H]Ketanserin)
T3 construct: expressed in transfected cells; host or cells: Chinese hamster ovary (CHO-K1) cells
Procedure: (1997), 68:1998] in a 50 mM Tris-HCl buffer, pH 7.4, was used. Compounds of the invention were incubated with 0.5 nM [^3H]Ketanserin for 60 min at 25° C. Non-specific binding was estimated in the presence of 1 μM Mianserin. Receptor proteins were filtered and washed, the filters were then counted to determine [^3H]Ketanserin specifically bound. Compounds were screened at 1 μM or lower, using 1% DMSO as vehicle. Biochemical assay results are presented as the percent inhibition of specific binding in Table 4.

[4] = biological target: human recombinant dopamine D2L receptor (Homo sapiens, UniProt P14416); assay: Dopamine D2L radioligand binding ([3H]Spiperone)
Procedure: To evaluate in radioligand binding assays the activity of compounds of the invention, human recombinant dopamine D2L receptor expressed in Chinese hamster ovary (CHO) cells [Grandy, D. K. et al., Proc. Natl. Acad. Sci. USA. (1989), 86:9762; Hayes, G. et al., Mol. Endocrinol. […] Compounds of the invention were incubated with 0.16 nM [^3H]Spiperone for 120 min at 25° C. Non-specific binding was estimated in the presence of 10 μM Haloperidol. Receptor proteins were filtered and washed, the filters were then counted to determine [^3H]Spiperone specifically bound. Compounds were screened at 1 μM or lower, using 1% DMSO as vehicle. Biochemical assay results are presented as the percent inhibition of specific binding in Table 3.

[5] = biological target: T4, human recombinant adrenergic α2C receptor (Homo sapiens, UniProt P18825); assay: Adrenergic α2C radioligand binding ([3H]MK-912); conditions: 0.1 μM ligand conc.
T4 construct: expressed in transfected cells; host or cells: insect Sf9 cells
T4 sequence (P18825 1-462): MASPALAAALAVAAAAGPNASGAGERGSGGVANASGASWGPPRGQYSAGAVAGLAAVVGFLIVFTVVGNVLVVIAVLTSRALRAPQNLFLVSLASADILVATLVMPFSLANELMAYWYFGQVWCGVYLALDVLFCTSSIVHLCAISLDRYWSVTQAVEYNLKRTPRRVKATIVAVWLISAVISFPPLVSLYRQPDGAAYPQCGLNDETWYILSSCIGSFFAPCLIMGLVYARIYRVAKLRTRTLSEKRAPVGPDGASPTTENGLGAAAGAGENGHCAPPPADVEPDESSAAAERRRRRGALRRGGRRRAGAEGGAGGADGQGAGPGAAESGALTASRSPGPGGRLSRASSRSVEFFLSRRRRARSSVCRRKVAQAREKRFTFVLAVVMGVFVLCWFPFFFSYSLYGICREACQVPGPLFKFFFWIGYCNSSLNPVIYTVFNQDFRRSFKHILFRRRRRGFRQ
Procedure: To evaluate in radioligand binding assays the activity of compounds of the invention, human recombinant adrenergic α2C receptor expressed in insect Sf9 cells [Uhlen, S. et al., J. Pharmacol. Exp. Ther. 1994), 271:1558] in a modified Tris-HCl buffer (50 mM Tris-HCl, pH 7.4, 12.5 mM MgCl2, 2 mM EDTA) was used. Compounds of the invention were incubated with 1 nM [^3H]MK-912 for 60 min at 25° C. Non-specific binding was estimated in the presence of 10 μM WB-4101. Receptor proteins were filtered and washed, the filters were then counted to determine [^3H]MK-912 specifically bound. Compounds were screened at 1 μM or lower, using 1% DMSO as vehicle. Compounds of the invention were tested in this biochemical assay. Biochemical assay results for representative compounds were presented as the percent inhibition of specific binding in Table 3.

[6] = biological target: T5, human recombinant adrenergic α2A receptor (Homo sapiens, UniProt P08913); assay: Adrenergic α2A radioligand binding ([3H]MK-912)
T5 construct: expressed in transfected cells; host or cells: insect Sf9 cells
T5 sequence (P08913 1-465): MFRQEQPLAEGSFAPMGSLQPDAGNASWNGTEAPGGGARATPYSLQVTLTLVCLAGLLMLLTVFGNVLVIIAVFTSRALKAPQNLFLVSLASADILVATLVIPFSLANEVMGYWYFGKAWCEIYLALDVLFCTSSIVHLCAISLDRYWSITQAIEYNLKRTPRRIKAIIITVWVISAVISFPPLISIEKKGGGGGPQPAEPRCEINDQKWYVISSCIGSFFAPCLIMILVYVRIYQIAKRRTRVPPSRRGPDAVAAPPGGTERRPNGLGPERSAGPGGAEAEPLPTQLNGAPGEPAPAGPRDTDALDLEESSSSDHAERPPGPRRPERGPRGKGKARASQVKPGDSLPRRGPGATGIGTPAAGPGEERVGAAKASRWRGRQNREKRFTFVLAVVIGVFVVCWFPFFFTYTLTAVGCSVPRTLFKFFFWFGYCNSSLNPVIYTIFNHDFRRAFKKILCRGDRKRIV
Procedure: To evaluate in radioligand binding assays the activity of compounds of the invention, human recombinant adrenergic α2A receptor expressed in insect Sf9 cells [Uhlen, S. et al., J. Pharmacol. Exp. Ther. (1994), 271:1558] in a modified Tris-HCl buffer (50 mM Tris-HCl, pH 7.4, 12.5 mM MgCl2, 2 mM EDTA) was used. Compounds of invention were incubated with 1 nM [^3H]MK-912 for 60 min at 25° C. MK912 was (2S-trans)-1,3,4,5′,6,6′,7,12b-octahydro-1′,3′-dimethyl-spiro[2H-benzofuro[2,3-a]quinolizine-2,4′(1′H)-pyrimidin]-2′(3′H)-one hydrochloride Non-specific binding was estimated in the presence of 10 μM WB-4101 (2-(2,6-dimethoxyphenoxyethyl)aminomethyl-1,4-benzodioxane hydrochloride). Receptor proteins were filtered and washed, the filters were then counted to determine [^3H]MK-912 specifically bound. Compounds were screened at 1 μM or lower, using 1% DMSO as vehicle. Compounds of the invention were tested in this biochemical assay. Biochemical assay results for representative compounds were presented as the percent inhibition of specific binding in Table 3.

T2 sequence (P47898 whole entry): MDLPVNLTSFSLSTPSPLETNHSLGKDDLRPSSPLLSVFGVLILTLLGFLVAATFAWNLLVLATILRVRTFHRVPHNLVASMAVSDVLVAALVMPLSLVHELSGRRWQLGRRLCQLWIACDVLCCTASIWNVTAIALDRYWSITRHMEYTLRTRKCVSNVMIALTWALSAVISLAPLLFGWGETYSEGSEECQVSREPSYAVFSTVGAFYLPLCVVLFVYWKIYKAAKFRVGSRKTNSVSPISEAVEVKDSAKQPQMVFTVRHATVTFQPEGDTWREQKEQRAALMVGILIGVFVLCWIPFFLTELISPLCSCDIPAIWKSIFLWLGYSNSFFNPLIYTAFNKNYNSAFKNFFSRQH
T1 sequence (P50406 whole entry): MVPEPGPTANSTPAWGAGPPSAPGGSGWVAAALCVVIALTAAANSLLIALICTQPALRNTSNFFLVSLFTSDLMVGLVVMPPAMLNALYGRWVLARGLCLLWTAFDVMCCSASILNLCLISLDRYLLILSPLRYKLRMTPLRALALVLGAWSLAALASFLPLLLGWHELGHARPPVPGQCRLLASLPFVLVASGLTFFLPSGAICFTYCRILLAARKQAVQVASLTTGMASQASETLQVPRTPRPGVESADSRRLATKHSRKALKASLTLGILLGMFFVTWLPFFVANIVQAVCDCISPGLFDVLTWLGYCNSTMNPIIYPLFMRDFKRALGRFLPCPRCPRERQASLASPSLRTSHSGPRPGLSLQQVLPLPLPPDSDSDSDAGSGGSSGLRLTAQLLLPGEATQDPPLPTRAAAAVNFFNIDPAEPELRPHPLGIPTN
T3 sequence (P28223 whole entry): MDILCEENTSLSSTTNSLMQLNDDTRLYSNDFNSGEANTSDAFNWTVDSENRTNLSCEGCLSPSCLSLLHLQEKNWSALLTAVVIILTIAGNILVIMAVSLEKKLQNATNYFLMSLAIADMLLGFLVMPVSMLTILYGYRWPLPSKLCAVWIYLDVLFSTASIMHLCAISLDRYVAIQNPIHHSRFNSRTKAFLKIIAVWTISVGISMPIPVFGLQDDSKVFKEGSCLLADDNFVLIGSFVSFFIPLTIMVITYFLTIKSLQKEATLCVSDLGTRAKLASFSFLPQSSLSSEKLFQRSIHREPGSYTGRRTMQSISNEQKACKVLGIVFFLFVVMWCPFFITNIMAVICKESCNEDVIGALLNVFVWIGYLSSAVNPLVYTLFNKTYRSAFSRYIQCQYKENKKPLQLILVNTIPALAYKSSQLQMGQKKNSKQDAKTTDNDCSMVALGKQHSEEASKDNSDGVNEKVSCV
human recombinant dopamine D2L receptor, sequence (P14416 whole entry): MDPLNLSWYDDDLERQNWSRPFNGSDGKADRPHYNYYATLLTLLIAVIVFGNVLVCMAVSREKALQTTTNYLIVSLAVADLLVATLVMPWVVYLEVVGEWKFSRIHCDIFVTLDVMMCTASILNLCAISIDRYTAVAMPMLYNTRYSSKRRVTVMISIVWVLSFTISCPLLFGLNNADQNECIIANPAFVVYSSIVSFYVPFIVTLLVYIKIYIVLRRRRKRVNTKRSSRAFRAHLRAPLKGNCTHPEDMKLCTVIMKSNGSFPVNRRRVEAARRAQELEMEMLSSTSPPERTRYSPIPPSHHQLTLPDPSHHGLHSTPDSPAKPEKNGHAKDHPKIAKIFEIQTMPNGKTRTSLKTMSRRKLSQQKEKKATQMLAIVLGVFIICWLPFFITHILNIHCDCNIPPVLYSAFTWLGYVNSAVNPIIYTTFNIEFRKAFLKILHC

For `Cc1cnc2c(c1)c1c(n2CCc2ccc(C)nc2)CCN2CCCC12` (stereo not drawn) [Compound 33, 10-methyl-7-(2-(6-methylpyridin-3-yl)ethyl)-2,3,5,6,7,1c-hexahydro-1H-pyrido[3′,2′:4,5]pyrrolo[2,3-g]indolizine], the “Percent Inhibition of ligand binding Serotonin 5-HT6” value ([1]; 0.1 μM ligand concentration) was 20%, the “Percent Inhibition of ligand binding Serotonin 5-HT5A” value [2] was 0% and the “Percent Inhibition of ligand binding Serotonin 5-HT2A” value ([3]; 0.1 μM ligand concentration) was 29%. The “Percent Inhibition of ligand binding Dopamine D2L” value ([4]; 0.1 μM ligand conc.) was 1% and the “Percent Inhibition of ligand binding Adrenergic α2C” value [5] was 4%.

For `Cc1ccc(CCn2c3c(c4cccnc42)C2CCCN2CC3)cn1` (stereo not drawn) [Compound 34, 7-(2-(6-methylpyridin-3-yl)ethyl)-2,3,5,6,7,1c-hexahydro-1H-pyrido[3′,2′:4,5]pyrrolo[2,3-g]indolizine], the “Percent Inhibition of ligand binding Serotonin 5-HT6” value ([1]; 0.1 μM ligand concentration) was 5%, the “Percent Inhibition of ligand binding Serotonin 5-HT5A” value [2] was 6% and the “Percent Inhibition of ligand binding Serotonin 5-HT2A” value ([3]; 0.1 μM ligand concentration) was 15%. For the same compound, the “Percent Inhibition of ligand binding Dopamine D2L” value ([4]; 0.1 μM ligand conc.) was 6% and the “Percent Inhibition of ligand binding Adrenergic α2C” value [5] was 1%.

`O=C(Cn1c2c(c3cccnc31)CN1CCCC1C2)N1CCCCC1` (stereo not drawn) [Compound 37, 1-(piperidin-1-yl)-2-(8,9,9a,10-tetrahydro-5H-pyrido[3′,2′:4,5]pyrrolo[3,2-f]indolizin-11(7H)-yl)ethanone] was tested, and the “Percent Inhibition of ligand binding Serotonin 5-HT6” value ([1]; 0.1 μM ligand concentration) was −9%, the “Percent Inhibition of ligand binding Serotonin 5-HT5A” value [2] was 8% and the “Percent Inhibition of ligand binding Serotonin 5-HT2A” value ([3]; 0.1 μM ligand concentration) was 33%. The “Percent Inhibition of ligand binding Dopamine D2L” value ([4]; 0.1 μM ligand conc.) was −5%, the “Percent Inhibition of ligand binding Adrenergic α2A” value ([6]; 0.1 μM ligand conc.) was 12% and the “Percent Inhibition of ligand binding Adrenergic α2C” value [5] was 4%.

In the case of `O=C(Cn1c2c(c3cccnc31)C1CCCN1CC2)N1CCCCC1` (stereo not drawn) [Compound 38, 1-(piperidin-1-yl)-2-(2,3,5,6-tetrahydro-1H-pyrido[3′,2′:4,5]pyrrolo[2,3-g]indolizin-7(11cH)-yl)ethanone], the “Percent Inhibition of ligand binding Serotonin 5-HT6” value ([1]; 0.1 μM ligand concentration) is reported as −8%, the “Percent Inhibition of ligand binding Serotonin 5-HT5A” value [2] is reported as 8% and the “Percent Inhibition of ligand binding Serotonin 5-HT2A” value ([3]; 0.1 μM ligand concentration) is reported as 19%. The “Percent Inhibition of ligand binding Dopamine D2L” value ([4]; 0.1 μM ligand conc.) was 24%, the “Percent Inhibition of ligand binding Adrenergic α2A” value ([6]; 0.1 μM ligand conc.) was 4% and the “Percent Inhibition of ligand binding Adrenergic α2C” value [5] was −6%.

In the case of `Fc1ccc(CCn2c3c(c4cc(Cl)ccc42)C2CCCN2CC3)cc1` (stereo not drawn) [Compound 1, 7-(4-fluorophenethyl)-10-chloro-2,3,5,6,7,11c-hexahydro-1H-indolizino[7,8-b]indole], the “Percent Inhibition of ligand binding Serotonin 5-HT6” value ([1]; 1 μM ligand concentration) is reported as 19%, the “Percent Inhibition of ligand binding Serotonin 5-HT2A” value ([3]; 1 μM ligand concentration) is reported as 11% and the “Percent Inhibition of ligand binding Dopamine D2L” value ([4]; 1 μM ligand conc.) is reported as 9%. The “Percent Inhibition of ligand binding Adrenergic α2A” value ([6]; 1 μM ligand conc.) was 22%.

For `Fc1ccc(CCn2c3c(c4cc(Cl)ccc42)CN2CCCC2C3)cc1` (stereo not drawn) [Compound 2, 10-(4-fluorophenethyl)-7-chloro-2,3,5,10,11,11a-hexahydro-1H-indolizino[7,6-b]indole], the “Percent Inhibition of ligand binding Serotonin 5-HT6” value ([1]; 1 μM ligand concentration) was 19%, the “Percent Inhibition of ligand binding Serotonin 5-HT2A” value ([3]; 1 μM ligand concentration) was 41% and the “Percent Inhibition of ligand binding Dopamine D2L” value ([4]; 1 μM ligand conc.) was 13%. For the same compound, the “Percent Inhibition of ligand binding Adrenergic α2A” value ([6]; 1 μM ligand conc.) was 20%.

With `C/C(=C\n1c2c(c3cc(C)ccc31)C1CCCN1CC2)c1ccc(C)nc1` (stereo not drawn) [Compound 32, (E)-10-methyl-7-(2-(6-methylpyridin-3-yl)prop-1-enyl)-2,3,5,6,7,11c-hexahydro-1H-indolizino[7,8-b]indole] the “Percent Inhibition of ligand binding Serotonin 5-HT6” value ([1]; 0.1 μM ligand concentration) was 25%, the “Percent Inhibition of ligand binding Serotonin 5-HT5A” value [2] was 24% and the “Percent Inhibition of ligand binding Serotonin 5-HT2A” value ([3]; 0.1 μM ligand concentration) was 50%. For the same compound, the “Percent Inhibition of ligand binding Dopamine D2L” value ([4]; 0.1 μM ligand conc.) was 3% and the “Percent Inhibition of ligand binding Adrenergic α2C” value [5] was 45%.

With `Cc1ccc(CCn2c3c(c4cccnc42)CN2CCCC2C3)cn1` (stereo not drawn) [Compound 35, 11-(2-(6-methylpyridin-3-yl)ethyl)-7,8,9,9a,10,11-hexahydro-5H-pyrido[3′,2′:4,5]pyrrolo[3,2-f]indolizine] the “Percent Inhibition of ligand binding Serotonin 5-HT6” value ([1]; 0.1 μM ligand concentration) was −3%, the “Percent Inhibition of ligand binding Serotonin 5-HT5A” value [2] was 10% and the “Percent Inhibition of ligand binding Serotonin 5-HT2A” value ([3]; 0.1 μM ligand concentration) was 31%. For the same compound, the “Percent Inhibition of ligand binding Dopamine D2L” value ([4]; 0.1 μM ligand conc.) was −3% and the “Percent Inhibition of ligand binding Adrenergic α2C” value [5] was 2%.

With `Cc1cnc2c(c1)c1c(n2CCc2ccc(C)nc2)CC2CCCN2C1` (stereo not drawn) [Compound 36, 3-methyl-11-(2-(6-methylpyridin-3-yl)ethyl)-7,8,9,9a,10,11-hexahydro-5H-pyrido[3′,2′:4,5]pyrrolo[3,2-f]indolizine] the “Percent Inhibition of ligand binding Serotonin 5-HT6” value ([1]; 0.1 μM ligand concentration) was 34%, the “Percent Inhibition of ligand binding Serotonin 5-HT5A” value [2] was 25% and the “Percent Inhibition of ligand binding Serotonin 5-HT2A” value ([3]; 0.1 μM ligand concentration) was 35%. For the same compound, the “Percent Inhibition of ligand binding Dopamine D2L” value ([4]; 0.1 μM ligand conc.) was −3% and the “Percent Inhibition of ligand binding Adrenergic α2C” value [5] was 3%.
